What was measured:
[1] = target: T1, recombinant human-MT1 receptor (Homo sapiens, UniProt P48039); assay: In vitro MT1 screening (AequoScreen aequorin luminescence, agonism); type: cell-based; conditions: percentage of activity relative to the reference agonist at the EC100 concentration
T1 construct: expressed in transfected cells; host or cells: unnamed cell line co-expressing mitochondrial apoaequorin and Gα16
Description: To proceed with compound screening over MT1 receptor, a cell line characterised by a stable overexpression of recombinant human-MT1 receptor was used. This line co-expresses mitochondrial apoaequorin and subunit Gα16.
Subunit Gα16 belongs to GPCR superfamily, in which intracellular signal transduction is produced via phospholipase (PLC). Activation of PLC produces an increment of inositol-triphosphate levels and intracellular calcium levels. This increment in calcium levels is, therefore, independent and full compatible with the signal transduction of MT1 receptor.
After binding to calcium, aequorin carries out the oxidation of colenterazine to colenteramide, a luminescent reaction.
Assay protocol for agonist screening consists in an overnight incubation of cells and colenterazine, being performed by an AequoScreen™ system instrument, PerkinElmer, USA. After that this mixture was injected over a plate that contains the solution of the compounds to screen and luminescence was immediately read. Only in case of antagonism screening, after 15-30 min of the first injection the reference agonist was added in the same well, and then luminescence was measured.
Agonist activity was calculated as percentage of activity relative to the reference agonist at the EC100 concentration.

[2] = Plasma drug levels after oral administration; type: in vivo; conditions: male Sprague-Dawley rats; for Ratio 15/60 (plasma level 15 min / 60 min): oral 3 mg/kg; for concentration at 15 min / concentration at 60 min: rat, plasma; for concentration at 15 min: 15 min after oral administration of 3 mg/kg; for concentration at 60 min: 60 min after oral administration of 3 mg/kg
Method: The compounds of formula I show the surprising advantage of being maintained at more sustained plasma levels and thus being long acting. This can be evidenced, for instance, by measuring the plasma levels after oral administration to rats at 15 and 60 min after oral administration, resulting in lower ratio values for the compounds of the present invention. Thus the compounds of formula I, characterized in that R2 is an alkyl radical show more sustained plasma levels than prior art compounds (EP1189900B1), wherein R2 is hydrogen. […] Consequently, the present compounds allow for a more efficient therapy: the slow elimination facilitates maintaining a stable plasma concentration at a non-toxic, effective level and the prolonged effect may be expected to result in better compliance of the subject to be treated with the prescribed medication.

T1 sequence (P48039 whole entry): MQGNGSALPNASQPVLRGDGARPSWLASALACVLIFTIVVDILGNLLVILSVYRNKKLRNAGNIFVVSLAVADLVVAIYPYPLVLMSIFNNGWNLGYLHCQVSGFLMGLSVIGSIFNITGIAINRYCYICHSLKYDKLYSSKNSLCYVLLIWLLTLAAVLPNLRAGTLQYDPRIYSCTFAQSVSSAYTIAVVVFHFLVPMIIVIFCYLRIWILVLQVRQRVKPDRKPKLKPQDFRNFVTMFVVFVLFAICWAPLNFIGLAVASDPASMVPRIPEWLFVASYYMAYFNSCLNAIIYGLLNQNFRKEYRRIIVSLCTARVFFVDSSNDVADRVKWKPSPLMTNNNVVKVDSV

Structure (SMILES) | activation at 0.001 µM ([1]; 1 nM compound) | activation at 0.1 µM ([1]; 100 nM compound) | Ratio 15/60 (plasma level 15 min / 60 min) [2] | concentration at 15 min [2] | concentration at 60 min [2] | % MT1 at 1 nM (agonism percentage) ([1]; 1 nM compound) | % MT1 at 100 nM (agonism percentage) ([1]; 100 nM compound)
CC1Cc2c(N3CC[C@H](NC(=O)C(F)(F)F)C3)ccc(F)c2O1 (stereo partly drawn) [Example 2, 2,2,2-trifluoro-N-((3S)-1-(7-fluoro-2-methyl-2,3-dihydrobenzofuran-4-yl)pyrrolidin-3-yl)acetamide] | 32% | 79% |  |  |  |  | 
CC(=O)N[C@H]1CCN(c2cccc3c2CC(C)O3)C1 (stereo partly drawn) [Example 13, N-((3S)-1-(2-methyl-2,3-dihydrobenzofuran-4-yl)pyrrolidin-3-yl)acetamide] | 17% | 91% | 2.29 | 433 ng/mL | 189 ng/mL |  | 
CC1Cc2c(cccc2N2CC[C@H](NC(=O)C(F)(F)F)C2)O1 (stereo partly drawn) [Example 14, 2,2,2-trifluoro-N-((3S)-1-(2-methyl-2,3-dihydrobenzofuran-4-yl)pyrrolidin-3-yl)acetamide] | 8% | 79% |  |  |  |  | 
CCC(=O)N[C@H]1CCN(c2cccc3c2CC(C)O3)C1 (stereo partly drawn) [Example 15, N-((3S)-1-(2-methyl-2,3-dihydrobenzofuran-4-yl)pyrrolidin-3-yl)propionamide] | 18% | 92% |  |  |  |  | 
CC1Cc2c(cccc2N2CC[C@H](NC(=O)C(C)C)C2)O1 (stereo partly drawn) [Example 16, N-((3S)-1-(2-methyl-2,3-dihydrobenzofuran-4-yl)pyrrolidin-3-yl)isobutyramide] | 6% | 76% |  |  |  |  | 
CC1Cc2c(cccc2N2CC[C@H](NC(=O)C3CC3)C2)O1 (stereo partly drawn) [Example 17, N-((3S)-1-(2-methyl-2,3-dihydrobenzofuran-4-yl)pyrrolidin-3-yl)cyclopropanecarboxamide] | 6% | 79% | 0.47 | 17 ng/mL | 36 ng/mL |  | 
CC(C)CC(=O)N[C@H]1CCN(c2cccc3c2CC(C)O3)C1 (stereo partly drawn) [Example 18, 3-methyl-N-((3S)-1-(2-methyl-2,3-dihydrobenzofuran-4-yl)pyrrolidin-3-yl)butanamide] | 28% | 82% |  |  |  |  | 
CCC1Cc2c(cccc2N2CC[C@H](NC(C)=O)C2)O1 (stereo partly drawn) [Example 19, N-((3S)-1-(2-ethyl-2,3-dihydrobenzofuran-4-yl)pyrrolidin-3-yl)acetamide] | 23% | 81% |  |  |  |  | 
CCC(=O)N[C@H]1CCN(c2cccc3c2CC(CC)O3)C1 (stereo partly drawn) [Example 20, N-((3S)-1-(2-ethyl-2,3-dihydrobenzofuran-4-yl)pyrrolidin-3-yl)propionamide] | 26% | 88% | 1.80 | 106 ng/mL | 59 ng/mL |  | 
CCCC1Cc2c(cccc2N2CC[C@H](NC(=O)CC)C2)O1 (stereo partly drawn) [Example 21, N-((3S)-1-(2-propyl-2,3-dihydrobenzofuran-4-yl)pyrrolidin-3-yl)propionamide] | 15% | 78% | 1.59 | 59 ng/mL | 37 ng/mL |  | 
COc1ccc2[nH]cc(CCNC(C)=O)c2c1 [Melatonin, reference compound] |  |  | 3.49 | 255 ng/mL | 73 ng/mL | 42% | 101%
CCC(=O)NCC[C@@H]1CCc2ccc3c(c21)CCO3 [Ramelteon, N-[2-[(8S)-1,6,7,8-tetrahydro-2H-indeno[5,4-b]furan-8-yl)ethyl]propionamide, reference compound] | 45% | 118% | 3.94 | 280 ng/mL | 71 ng/mL |  | 

The remaining lines, values ahead:

activation at 0.001 µM ([1]; 1 nM compound) | activation at 0.1 µM ([1]; 100 nM compound) | Ratio 15/60 (plasma level 15 min / 60 min) [2] | concentration at 15 min [2] | concentration at 60 min [2] | % MT1 at 1 nM (agonism percentage) ([1]; 1 nM compound) | % MT1 at 100 nM (agonism percentage) ([1]; 100 nM compound) | Structure (SMILES)
19% | 73% | 1.03 | 56.8 ng/mL | 55.4 ng/mL |  |  | CC(=O)N[C@H]1CCN(c2ccc(F)c3c2CC(C)O3)C1 (stereo partly drawn) [Example 1, N-((3S)-1-(7-fluoro-2-methyl-2,3-dihydrobenzofuran-4-yl)pyrrolidin-3-yl)acetamide]
30% | 88% | 1.74 | 113 ng/mL | 64.9 ng/mL |  |  | CCC(=O)N[C@H]1CCN(c2ccc(F)c3c2CC(C)O3)C1 (stereo partly drawn) [Example 3, N-((3S)-1-(7-fluoro-2-methyl-2,3-dihydrobenzofuran-4-yl)pyrrolidin-3-yl)propionamide]
44% | 98% |  |  |  |  |  | CC1Cc2c(N3CC[C@H](NC(=O)C(C)F)C3)ccc(F)c2O1 (stereo partly drawn) [Example 4, 2-fluoro-N-((3S)-1-(7-fluoro-2-methyl-2,3-dihydrobenzofuran-4-yl)pyrrolidin-3-yl)propanamide]
32% | 91% |  |  |  |  |  | CCCC(=O)N[C@H]1CCN(c2ccc(F)c3c2CC(C)O3)C1 (stereo partly drawn) [Example 5, N-((3S)-1-(7-fluoro-2-methyl-2,3-dihydrobenzofuran-4-yl)pyrrolidin-3-yl)butyramide]
24% | 75% |  |  |  |  |  | CC1Cc2c(N3CC[C@H](NC(=O)C(C)C)C3)ccc(F)c2O1 (stereo partly drawn) [Example 6, N-((3S)-1-(7-fluoro-2-methyl-2,3-dihydrobenzofuran-4-yl)pyrrolidin-3-yl)isobutyramide]
22% | 80% | 0.58 | 5.1 ng/mL | 8.8 ng/mL |  |  | CC1Cc2c(N3CC[C@H](NC(=O)C4CC4)C3)ccc(F)c2O1 (stereo partly drawn) [Example 7, N-((3S)-1-(7-fluoro-2-methyl-2,3-dihydrobenzofuran-4-yl)pyrrolidin-3-yl)cyclopropanecarboxamide]
31% | 89% |  |  |  |  |  | CCCCC(=O)N[C@H]1CCN(c2ccc(F)c3c2CC(C)O3)C1 (stereo partly drawn) [Example 8, N-((3S)-1-(7-fluoro-2-methyl-2,3-dihydrobenzofuran-4-yl)pyrrolidin-3-yl)pentanamide]
17% | 70% |  |  |  |  |  | CCC(C)C(=O)N[C@H]1CCN(c2ccc(F)c3c2CC(C)O3)C1 (stereo partly drawn) [Example 9, N-((3S)-1-(7-fluoro-2-methyl-2,3-dihydrobenzofuran-4-yl)pyrrolidin-3-yl)-2-methylbutanamide]
36% | 89% |  |  |  |  |  | COC(=O)N[C@H]1CCN(c2ccc(F)c3c2CC(C)O3)C1 (stereo partly drawn) [Example 10, Methyl (3S)-1-(7-fluoro-2-methyl-2,3-dihydrobenzofuran-4-yl)pyrrolidin-3-ylcarbamate]
28% | 73% |  |  |  |  |  | CCOC(=O)N[C@H]1CCN(c2ccc(F)c3c2CC(C)O3)C1 (stereo partly drawn) [Example 11, Ethyl (3S)-1-(7-fluoro-2-methyl-2,3-dihydrobenzofuran-4-yl)pyrrolidin-3-ylcarbamate]
18% | 90% |  |  |  |  |  | CCNC(=O)N[C@H]1CCN(c2ccc(F)c3c2CC(C)O3)C1 (stereo partly drawn) [Example 12, 1-Ethyl-3-((3S)-1-(7-fluoro-2-methyl-2,3-dihydrobenzofuran-4-yl)pyrrolidin-3-yl)urea]

— patent US20120088809A1, “1-(2-ALKYL-2,3-DIHYDRO-BENZOFURAN-4-YL)-PYRROLIDIN-3-YLAMINE ACYL COMPOUNDS” (priority 2009, published 2012)
